Drawing on patent US9169241B2, “Quinolinyloxyphenylsulfonamides” (Max-Planck-Gesellschaft Zur Forderung der Wissenschaften …, priority 2009, dated 2015), this text covers IC50 and melting point for eight compounds.

Series [1] deals with Hs578T. Briefly: Wound healing migration assay. The class given is cell-based. Particulars: Homo sapiens, Hs-578T; HS578T cell line; Table Ib. The method, boiled down:
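Cells seeded at 150000/24 well, grown to monolayer overnight, scratched with a pipette tip, then treated with compound at 12.5, 6.25 or 3.125 μM versus DMSO. Stopped by crystal violet fixation at 48-72 h once control wounds closed; IC50 taken as 50% wound size between t0 and t48 or t72.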

Series [2] deals with Hs578T. Briefly: Matrigel outgrowth assay/branching assay. It counts as cell-based. Particulars: Homo sapiens, Hs-578T; HS578T cell line; Table Ib; read-out: Total branching inhibition in Matrigel HS578T. The method in brief: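 Cells (5000/well) were seeded onto polymerized 3 mg/ml Matrigel with compound at 3.125, 1.56 or 0.78 μM, or DMSO. Imaging by inverted microscopy at 48, 72 and 96 h scored invasive branching. Only concentrations giving total branching inhibition counted as positive.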

Series [3] relates to Hs578T. In words: Cell vitality assay (ATP assay, CellTiter-Glo). The class given is cell-based. Particulars: Homo sapiens, Hs-578T; HS578T cell line, 72 h; Table Ib; read-out: IC50 ATP-Assay HS578T after 72 h. The method, boiled down:
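Steps: seed 1000 cells per well; add compound (0.195–12.5 μM, 7 points) or DMSO; incubate 72 h; equilibrate to room temperature ~30 min; add reagent, shake 2 min, stand 10 min; read luminescence. IC50 relative to DMSO-control ATP.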
Background: ATP-based viability assays read luminescence as a measure of living cells.

Series [4] concerns the target T1, wild type AXL (wtAXL) receptor tyrosine kinase (Homo sapiens, UniProt P30530).
T1 construct: WtAXL cDNA was cloned into vector pLXSN(ESK) and transfected into Phoenix E packaging cells; expressed in transfected cells; host or cells: NIH3T3 N7 (mouse fibroblasts), retrovirally infected, clone 22
T1 sequence (P30530 26-894): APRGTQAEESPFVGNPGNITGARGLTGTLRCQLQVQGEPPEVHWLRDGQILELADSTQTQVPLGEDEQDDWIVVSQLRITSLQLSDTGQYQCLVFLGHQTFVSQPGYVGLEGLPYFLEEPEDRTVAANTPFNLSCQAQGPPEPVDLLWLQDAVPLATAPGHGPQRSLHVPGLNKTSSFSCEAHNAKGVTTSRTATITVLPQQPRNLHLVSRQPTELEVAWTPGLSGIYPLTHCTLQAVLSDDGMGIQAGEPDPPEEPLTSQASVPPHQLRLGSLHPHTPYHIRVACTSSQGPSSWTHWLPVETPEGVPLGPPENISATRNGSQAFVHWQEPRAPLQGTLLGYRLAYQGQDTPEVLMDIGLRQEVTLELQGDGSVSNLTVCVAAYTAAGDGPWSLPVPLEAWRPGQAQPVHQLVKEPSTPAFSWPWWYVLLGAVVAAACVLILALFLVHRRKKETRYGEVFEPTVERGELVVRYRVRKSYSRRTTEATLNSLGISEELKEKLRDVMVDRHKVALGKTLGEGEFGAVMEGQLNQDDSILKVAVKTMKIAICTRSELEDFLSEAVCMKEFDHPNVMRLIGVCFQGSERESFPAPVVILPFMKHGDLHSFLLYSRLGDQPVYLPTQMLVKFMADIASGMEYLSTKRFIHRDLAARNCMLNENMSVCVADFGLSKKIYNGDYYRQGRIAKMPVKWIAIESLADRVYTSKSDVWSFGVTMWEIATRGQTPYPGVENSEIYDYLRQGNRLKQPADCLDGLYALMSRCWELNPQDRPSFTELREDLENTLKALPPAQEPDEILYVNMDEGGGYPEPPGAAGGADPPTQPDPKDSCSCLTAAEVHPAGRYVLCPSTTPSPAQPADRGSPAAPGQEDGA
In words: NIH-3T3-AXL cellular kinase assay (pY-AXL-ELISA). As to conditions: NIH-3T3-AXL (clone 22) cells, serum depleted, compounds 1 h; Table Ia. It counts as cell-based. The method in brief:
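NIH3T3 cells stably expressing human wild-type AXL (retroviral, puromycin-selected clones) were treated with serial compound dilutions for 1 h and lysed. AXL tyrosine phosphorylation was measured by ELISA on the lysates: biotinylated 4G10 anti-phosphotyrosine, streptavidin-alkaline phosphatase, AttoPhos fluorescence at 430/560 nm after 90 min.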

Each structure is given as a SMILES string. pIC50: −log10 of the molar value.

In general, melting point refers to the temperature of the solid-liquid transition. For the compound `COc1cc2c(Oc3ccc(NS(=O)(=O)c4c(Cl)cccc4Cl)cc3C)ccnc2cc1OCCCN1CCC(C)CC1` [Example 176, 2,6-Dichloro-N-(4-{6-methoxy-7-[3-(4-methyl-piperidin-1-yl)-propoxy]-quinolin-4-yloxy}-3-methyl-phenyl)-benzenesulfonamide], the melting point was in the range of 209 to 210 °C. In addition, the pIC50 in series [1] was at least 4.90. The pIC50 in series [2] is at least 5.00. Further, the pIC50 in series [3] was at least 4.90. This compound showed a pIC50 in series [4] of 5.52 to 6.30.

`COc1cc2c(Oc3ccc(NS(=O)(=O)c4cc(Cl)ccc4Cl)cc3F)ccnc2cc1OCCCN(C)C` [Example 180, 2,5-Dichloro-N-{4-[7-(3-dimethylamino-propoxy)-6-methoxy-quinolin-4-yloxy]-3-fluoro-phenyl}-benzenesulfonamide] registered a melting point of 150 to 152 °C. For the same compound, in series [1], the pIC50 was at least 4.90. Further, the pIC50 in series [2] was at least 5.00. Moreover, the pIC50 in series [3] is at least 4.90. Also, the pIC50 in series [4] is above 6.30.

Compound `COc1cc2c(Oc3ccc(NS(=O)(=O)c4ccc(Cl)s4)cc3F)ccnc2cc1OCCCN(C)C` [Example 182, 5-Chloro-thiophene-2-sulfonic acid {4-[7-(3-dimethylamino-propoxy)-6-methoxy-quinolin-4-yloxy]-3-fluoro-phenyl}-amide] gave a melting point of 130 to 132 °C. In series [1], the pIC50 was at least 4.90. Also, the pIC50 in series [2] is 4.60 to 5.00. In addition, the pIC50 in series [3] was at least 4.90. In series [4], this compound had a pIC50 above 6.30.

`COc1cc2c(Oc3ccc(NS(=O)(=O)c4ccco4)cc3F)ccnc2cc1OCCCN(C)C` [Example 185, Furan-2-sulfonic acid {4-[7-(3-dimethylamino-propoxy)-6-methoxy-quinolin-4-yloxy]-3-fluoro-phenyl}-amide] displayed a melting point of 185 to 187 °C. The pIC50 in series [1] was 4.30 to 4.90. In addition, the pIC50 in series [2] is 4.60 to 5.00. The pIC50 in series [3] is at least 4.90. The pIC50 in series [4] was 5.52 to 6.30.

Compound `COc1cc2c(Oc3ccc(NS(=O)(=O)c4cccs4)cc3F)ccnc2cc1OCCCN(C)C` [Example 186, Thiophene-2-sulfonic acid {4-[7-(3-dimethylamino-propoxy)-6-methoxy-quinolin-4-yloxy]-3-fluoro-phenyl}-amide] displayed a melting point of 186 to 188 °C. Besides, the pIC50 in series [1] was at least 4.90. Further, the pIC50 in series [2] is 4.60 to 5.00. The pIC50 in series [3] is at least 4.90. This compound also gave a pIC50 in series [4] above 6.30.

With `COc1cc2c(Oc3cc(NS(=O)(=O)c4cc(Cl)ccc4Cl)ccc3F)ccnc2cc1OCCCN1CCC(C)CC1` [Example 191, 2,5-Dichloro-N-(4-fluoro-3-{6-methoxy-7-[3-(4-methyl-piperidin-1-yl)-propoxy]-quinolin-4-yloxy}-phenyl)-benzenesulfonamide], the melting point fell in the range of 127 to 130 °C. In addition, the pIC50 in series [1] is at least 4.90. The pIC50 in series [2] is 4.60 to 5.00. The pIC50 in series [3] was at least 4.90. This compound had a pIC50 in series [4] of 5.52 to 6.30.

`COc1cc2c(Oc3ccc(Cl)c(NS(=O)(=O)c4cc(F)ccc4F)c3)ccnc2cc1OCCCN1CCC(C)CC1` [Example 193, N-(2-Chloro-5-{6-methoxy-7-[3-(4-methyl-piperidin-1-yl)-propoxy]-quinolin-4-yloxy}-phenyl)-2,5-difluoro-benzenesulfonamide] gave a melting point of 206 to 208 °C. The compound also had a pIC50 in series [1] of at least 4.90. The pIC50 in series [2] was 4.60 to 5.00. The pIC50 in series [3] was 4.30 to 4.90. In series [4], the pIC50 was 5.52 to 6.30.

In turn, `COc1cc2c(Oc3ccc(Cl)c(NS(=O)(=O)c4c(F)cccc4F)c3)ccnc2cc1OCCCN1CCC(C)CC1` [Example 194, N-(2-Chloro-5-{6-methoxy-7-[3-(4-methyl-piperidin-1-yl)-propoxy]-quinolin-4-yloxy}-phenyl)-2,6-difluoro-benzenesulfonamide] had a melting point of 222 to 226 °C. In addition, in series [1], the pIC50 was 4.30 to 4.90. Moreover, the pIC50 in series [2] is 4.60 to 5.00. Besides, the pIC50 in series [3] is 4.30 to 4.90. This compound gave a pIC50 in series [4] of 5.52 to 6.30.
